# Test results taken from article PMC12369479 (Journal of Experimental Botany, 2025).
# What was measured:
# WT ZmADK3 = WT ZmADK3 (Zea mays, UniProt A0A1D6E5Z5); test: Binding affinity by MST
# ZmADK3 E225A variant = ZmADK3 E225A variant (Zea mays, UniProt A0A1D6E5Z5, E225A); test: ADK activity, coupled reaction with PK and LDH; format: biochemical; conditions: 100 µM Ado, 10 mM ATP, 30 °C
# Procedure: (§1) All ZmADK3 mutants were cloned by 30 cycle PCRs using tail-to-tail oriented phosphorylated primers, with the mutation being located at the 5′ end of one of the primers. The following mutants were cloned using the primers given in Supplementary Table S1: D19A, R132A, N222A, E225A, N295A, and D299A. The products were treated with DpnI restriction enzyme, gel purified, and ligated using T4 DNA ligase (www.thermofisher.com). Clones were transformed into T7 express I^qE. coli competent cells.
# (§2) Substrate analogs were purchased from Sigma-Aldrich (www.sigmaaldrich.com). The ADK activity was measured spectrophotometrically on an Agilent 8453 UV-Vis spectrophotometer (www.agilent.com) at 30 °C using a coupled reaction with pyruvate kinase (PK) and lactate dehydrogenase (LDH) (www.sigmaaldrich.com) ([Blondin et al., 1994]). In this assay, PK converts ADP produced by ADK and phosphoenolpyruvate (PEP) to pyruvate. Subsequently, LDH then converts pyruvate to lactate using the coenzyme NADH, with the conversion monitored at 340 nm. The reaction was conducted in 50 mM Tris–HCl buffer at pH 7.5, containing 50 mM KCl, 6 mM MgCl2, 300 µM PEP, 200 µM NADH, 10 mM ATP, 2 U of PK, and 2.5 U of LDH, using various nucleoside substrates. Kinetic constants were determined using GraphPad Prism 8.0 software (www.graphpad.com). Each measurement was performed six times using repetitive purified enzymes. The activities of all five ADKs were also measured by HPLC ([Moffatt et al., 1991]). The reaction mixture comprised 50 mM Tris–HCl pH 7.5, 5 mM MgCl2, 0.5 mM DTT, 30 mM NaF, 5 mM ATP, 40 µM substrate, and 2–150 ng of purified ADK, depending on the isoform. The reaction was incubated at 30 °C for up to 1 h. […] Similarly, the conversion of cytokinin ribosides to monophosphates was followed on a LiChrosphere 60 RP-Select B (5 µm) LiChroCART column 125-4 column equilibrated with 10 mM triethylamine at pH 5.4 plus 10% methanol, and stepwise eluted with 100% methanol.
# ZmADK3 D19A variant = ZmADK3 D19A variant (Zea mays, UniProt A0A1D6E5Z5, D19A); test: ADK activity, coupled reaction with PK and LDH; format: biochemical
# Procedure: as §1, §2
# ZmADK3 N295A variant = ZmADK3 N295A variant (Zea mays, UniProt A0A1D6E5Z5, N295A); test: ADK activity, coupled reaction with PK and LDH; format: biochemical; conditions: 100 µM Ado, 10 mM ATP, 30 °C
# Procedure: as §1, §2
# ZmADK3 D299A variant = ZmADK3 D299A variant (Zea mays, UniProt A0A1D6E5Z5, D299A); test: ADK activity, coupled reaction with PK and LDH; format: biochemical; conditions: 100 µM Ado, 10 mM ATP, 30 °C
# Procedure: as §1, §2
# ZmADK3 N222A variant = ZmADK3 N222A variant (Zea mays, UniProt A0A1D6E5Z5, N222A); test: ADK activity, coupled reaction with PK and LDH; format: biochemical; conditions: 100 µM Ado, 10 mM ATP, 30 °C
# Procedure: as §1, §2
# ZmADK3 R132A variant = ZmADK3 R132A variant (Zea mays, UniProt A0A1D6E5Z5, R132A); test: ADK activity, coupled reaction with PK and LDH; format: biochemical; conditions: 100 µM Ado, 10 mM ATP, 30 °C
# Procedure: as §1, §2
# all three maize ADKs = test: ADK activity, coupled reaction (summary for maize enzymes); format: biochemical, Zea mays; conditions: saturating 100 µM concentration
# Procedure: Substrate analogs were purchased from Sigma-Aldrich (www.sigmaaldrich.com). The ADK activity was measured spectrophotometrically on an Agilent 8453 UV-Vis spectrophotometer (www.agilent.com) at 30 °C using a coupled reaction with pyruvate kinase (PK) and lactate dehydrogenase (LDH) (www.sigmaaldrich.com) ([Blondin et al., 1994]). In this assay, PK converts ADP produced by ADK and phosphoenolpyruvate (PEP) to pyruvate. Subsequently, LDH then converts pyruvate to lactate using the coenzyme NADH, with the conversion monitored at 340 nm. The reaction was conducted in 50 mM Tris–HCl buffer at pH 7.5, containing 50 mM KCl, 6 mM MgCl2, 300 µM PEP, 200 µM NADH, 10 mM ATP, 2 U of PK, and 2.5 U of LDH, using various nucleoside substrates. Kinetic constants were determined using GraphPad Prism 8.0 software (www.graphpad.com). Each measurement was performed six times using repetitive purified enzymes. The activities of all five ADKs were also measured by HPLC ([Moffatt et al., 1991]). The reaction mixture comprised 50 mM Tris–HCl pH 7.5, 5 mM MgCl2, 0.5 mM DTT, 30 mM NaF, 5 mM ATP, 40 µM substrate, and 2–150 ng of purified ADK, depending on the isoform. The reaction was incubated at 30 °C for up to 1 h. […]
# PpADK2 = PpADK2 (Physcomitrium patens, UniProt A9RF27); test: ADK activity, coupled reaction with PK and LDH; conditions: 100 µM substrate, 10 mM ATP, pH 7.5, 30 °C
# Procedure: as §2
# ZmADK1 = ZmADK1 (Zea mays, UniProt K7UH13); test: ADK activity, coupled reaction with PK and LDH; conditions: 100 µM substrate, 10 mM ATP, pH 7.5, 30 °C
# Procedure: as §2
# ZmADK3 = ZmADK3 (Zea mays, UniProt A0A1D6E5Z5); test: ADK activity, coupled reaction with PK and LDH; format: biochemical
# Procedure: Substrate analogs were purchased from Sigma-Aldrich (www.sigmaaldrich.com). […] In this assay, PK converts ADP produced by ADK and phosphoenolpyruvate (PEP) to pyruvate. Subsequently, LDH then converts pyruvate to lactate using the coenzyme NADH, with the conversion monitored at 340 nm. The reaction was conducted in 50 mM Tris–HCl buffer at pH 7.5, containing 50 mM KCl, 6 mM MgCl2, 300 µM PEP, 200 µM NADH, 10 mM ATP, 2 U of PK, and 2.5 U of LDH, using various nucleoside substrates. Kinetic constants were determined using GraphPad Prism 8.0 software (www.graphpad.com). Each measurement was performed six times using repetitive purified enzymes. […] The reaction mixture comprised 50 mM Tris–HCl pH 7.5, 5 mM MgCl2, 0.5 mM DTT, 30 mM NaF, 5 mM ATP, 40 µM substrate, and 2–150 ng of purified ADK, depending on the isoform. The reaction was incubated at 30 °C for up to 1 h.
# ZmADK2 = ZmADK2 (Zea mays, UniProt B4FFH8, T4S); test: ADK activity, coupled reaction with PK and LDH; format: biochemical; conditions: ZmADK2; 100 µM substrate; 10 mM ATP; pH 7.5; 30 °C
# Procedure: as §2
# PpADK1 = target: T1, PpADK1 (Physcomitrium patens, UniProt O49923); test: Binding affinity by microscale thermophoresis (MST); parameters: species or system Physcomitrella patens; conditions: 50 mM HEPES pH 7.5, 1 mM MgCl2, first or only binding event, read-out: KD
# T1 construct: made in house; host or cells: E. coli T7 Express Iq
# Procedure: The microscale thermophoresis (MST) method was used to determine the binding affinity of various ribosides for ZmADK2 and PpADK1. Proteins were fluorescently labeled with RED-tris-NTA dye (www.nanotemper-technologies.com) using a 1:1 dye/protein molar ratio. The labeled protein was adjusted to 100–300 nM in 50 mM HEPES buffer pH 7.5, 1 mM MgCl2, and 0.2% Tween. Measurements were performed in premium capillaries on a Monolith NT.115 instrument at 30 °C with 5 s/30 s/5 s laser off/on/off times, respectively, with continuous sample fluorescence recording. Thermal stability was measured by nano-differential scanning fluorimetry on a Prometheus NT.48 instrument (www.nanotemper-technologies.com) in various buffers covering a pH (7.0–9.5) and temperature range (25–95 °C), with a heating rate of 1 °C min^–1, and using NT melting control software. Protein unfolding was measured by detecting the temperature-induced change in tryptophan fluorescence intensity at emission wavelengths of 330±5 nm and 350±5 nm. The melting temperature (Tm) was deduced from the maximum of the first derivative of the fluorescence ratios F350/F330.
# Chain of ZmADK3 (A0A1D6E5Z5 entry or part of it): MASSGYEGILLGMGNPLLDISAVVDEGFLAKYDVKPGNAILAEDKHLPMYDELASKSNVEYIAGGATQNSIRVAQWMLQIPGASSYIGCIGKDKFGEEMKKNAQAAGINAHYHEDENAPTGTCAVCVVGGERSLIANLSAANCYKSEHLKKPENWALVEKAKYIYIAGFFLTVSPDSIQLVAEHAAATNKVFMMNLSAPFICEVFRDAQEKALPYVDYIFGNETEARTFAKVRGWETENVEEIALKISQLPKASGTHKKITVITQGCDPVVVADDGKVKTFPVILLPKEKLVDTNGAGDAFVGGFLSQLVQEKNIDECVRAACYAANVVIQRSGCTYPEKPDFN
# Chain of ZmADK3 D19A variant (A0A1D6E5Z5 entry or part of it D19A): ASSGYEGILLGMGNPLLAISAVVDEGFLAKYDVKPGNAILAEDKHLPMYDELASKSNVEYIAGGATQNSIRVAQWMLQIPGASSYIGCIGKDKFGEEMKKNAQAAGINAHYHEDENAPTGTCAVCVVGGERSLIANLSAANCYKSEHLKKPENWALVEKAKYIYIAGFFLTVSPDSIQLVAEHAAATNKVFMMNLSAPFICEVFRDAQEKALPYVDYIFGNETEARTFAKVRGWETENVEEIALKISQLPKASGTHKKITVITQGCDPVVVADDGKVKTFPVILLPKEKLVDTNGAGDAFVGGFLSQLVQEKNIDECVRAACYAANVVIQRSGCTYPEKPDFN
# Chain of ZmADK3 R132A variant (A0A1D6E5Z5 entry or part of it R132A): as the sequence (A0A1D6E5Z5 entry or part of it D19A) above, with A18D, R131A counted along it
# Chain of ZmADK3 E225A variant (A0A1D6E5Z5 entry or part of it E225A): as the sequence (A0A1D6E5Z5 entry or part of it D19A) above, with A18D, E224A counted along it
# Chain of ZmADK3 D299A variant (A0A1D6E5Z5 entry or part of it D299A): as the sequence (A0A1D6E5Z5 entry or part of it D19A) above, with A18D, D298A counted along it
# Chain of WT ZmADK3 (A0A1D6E5Z5 2-344): as the sequence (A0A1D6E5Z5 entry or part of it D19A) above, with A18D counted along it
# Chain of ZmADK1 (K7UH13 entry or part of it): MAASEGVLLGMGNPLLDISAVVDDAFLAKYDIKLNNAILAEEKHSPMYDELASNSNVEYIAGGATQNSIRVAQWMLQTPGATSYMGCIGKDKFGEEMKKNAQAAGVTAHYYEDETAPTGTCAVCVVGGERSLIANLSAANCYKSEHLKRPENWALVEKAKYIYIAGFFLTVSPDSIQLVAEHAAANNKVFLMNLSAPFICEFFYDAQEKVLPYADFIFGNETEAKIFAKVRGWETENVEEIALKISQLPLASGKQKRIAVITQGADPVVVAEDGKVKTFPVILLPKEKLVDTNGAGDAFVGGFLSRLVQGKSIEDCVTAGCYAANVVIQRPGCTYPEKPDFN
# Chain of ZmADK3 N222A variant (A0A1D6E5Z5 entry or part of it N222A): as the sequence (A0A1D6E5Z5 entry or part of it D19A) above, with A18D, N221A counted along it
# Chain of ZmADK3 N295A variant (A0A1D6E5Z5 entry or part of it N295A): as the sequence (A0A1D6E5Z5 entry or part of it D19A) above, with A18D, N294A counted along it
# Chain of PpADK2 (A9RF27 entry or part of it): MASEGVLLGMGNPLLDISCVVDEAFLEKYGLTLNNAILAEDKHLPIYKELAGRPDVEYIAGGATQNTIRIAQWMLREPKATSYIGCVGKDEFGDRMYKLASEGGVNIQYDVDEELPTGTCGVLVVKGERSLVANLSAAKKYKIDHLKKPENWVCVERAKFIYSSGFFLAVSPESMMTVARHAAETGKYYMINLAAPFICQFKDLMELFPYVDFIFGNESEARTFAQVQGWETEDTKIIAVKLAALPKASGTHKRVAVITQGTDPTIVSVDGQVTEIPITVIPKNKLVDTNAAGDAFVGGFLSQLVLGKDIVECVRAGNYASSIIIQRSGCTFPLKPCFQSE
# T1 sequence (O49923 whole entry): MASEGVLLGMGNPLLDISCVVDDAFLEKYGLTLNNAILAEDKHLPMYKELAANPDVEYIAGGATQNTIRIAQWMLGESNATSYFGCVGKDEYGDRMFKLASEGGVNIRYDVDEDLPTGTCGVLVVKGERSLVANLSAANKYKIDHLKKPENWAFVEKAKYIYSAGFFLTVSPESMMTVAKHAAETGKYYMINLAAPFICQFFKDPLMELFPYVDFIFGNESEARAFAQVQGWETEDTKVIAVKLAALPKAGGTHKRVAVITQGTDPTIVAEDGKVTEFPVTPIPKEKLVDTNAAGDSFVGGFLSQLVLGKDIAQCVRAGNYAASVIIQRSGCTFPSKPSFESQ
# Chain of ZmADK2 (B4FFH8 1-342 T4S): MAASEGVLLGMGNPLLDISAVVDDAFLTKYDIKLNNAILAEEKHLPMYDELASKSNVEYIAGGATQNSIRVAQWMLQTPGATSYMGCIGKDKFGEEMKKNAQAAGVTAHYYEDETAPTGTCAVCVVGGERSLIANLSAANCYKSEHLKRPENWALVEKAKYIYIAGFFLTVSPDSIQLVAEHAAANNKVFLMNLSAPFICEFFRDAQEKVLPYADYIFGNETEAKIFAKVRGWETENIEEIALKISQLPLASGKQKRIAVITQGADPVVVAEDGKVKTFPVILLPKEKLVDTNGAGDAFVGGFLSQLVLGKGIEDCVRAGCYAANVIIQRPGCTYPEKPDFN
smiles,measurement,setting,value
"Nc1ncnc2c1ncn2[C@@H]1O[C@H](CO)[C@@H](O)[C@H]1O [Ado, adenosine]",Kd,WT ZmADK3,280 ± 50 nM
same,Specific activity,ZmADK3 E225A variant,1.9±0.4 nkat mg^–1
same,reduction in specific activity,"ZmADK3 D19A variant; D19A variant of ZmADK3 vs WT, Ado substrate",10 fold
same,Specific activity,"ZmADK3 D19A variant; D19A, 100 µM Ado, 10 mM ATP, 30 °C",3.3±0.4 nkat mg^–1
same,Specific activity,ZmADK3 N295A variant,10.1±0.1 nkat mg^–1
same,Specific activity,ZmADK3 D299A variant,1.8±0.1 nkat mg^–1
same,Specific activity,ZmADK3 N222A variant,13.4±0.7 nkat mg^–1
same,Specific activity,ZmADK3 R132A variant,7.4±0.3 nkat mg^–1
same,activity,all three maize ADKs,30–40 nkat mg^–1
same,Specific activity,PpADK2,4.70±0.05 nmol s^–1 mg^–1
same,Specific activity,ZmADK1,30.5±0.4 nmol s^–1 mg^–1
same,Specific activity,"ZmADK3; WT ZmADK3, 100 µM Ado, 10 mM ATP, 30 °C",31.0±0.8 nkat mg^–1
same,Relative rate,"ZmADK3; WT ZmADK3, 100 µM Ado, relative to WT",100.0%
same,Specific activity,"ZmADK3; ZmADK3, 100 µM substrate, 10 mM ATP, pH 7.5, 30 °C",30.0±1.1 nmol s^–1 mg^–1
same,kcat,"ZmADK3; ZmADK3, 10 mM ATP, pH 7.5, 30 °C",1.18±0.03 s^–1
same,Specific activity,ZmADK2,40.3±1.4 nmol s^–1 mg^–1
same,Kd,PpADK1,700 nM
